From patent US20240002388A1, “PYRIMIDINONE COMPOUNDS AND USES THEREOF” (HUTCHISON MEDIPHARMA LIMITED, priority 2020, published 2024)

Each compound was assayed on IL-1β production in human whole blood (assay: TNF-α, Z-VAD-FMK and SM-164 induced IL-1β production in human whole blood). Details: Z-VAD-FMK and SM-164 stimulation, 6 hours, IL-1β ELISA.
Assay type: cell-based
Source text: • Human blood samples were collected by venipuncture from healthy volunteers, with signed consent from each volunteer before blood collection; • RPMI 1640 medium: L-Glutamine, 1.5 g/L NaHCO3, 2.383 g/L HEPES solution, 0.11 g/L sodium pyruvate and 4.5 g/L Glucose; Gibco, catalog: A10491-01; • Dimethyl sulfoxide (DMSO): Sigma, catalog: D2650; • Recombinant Human TNF-alpha Protein (hTNF-α): R&D system, catalog: 210-TA-100; • Pan-Caspase inhibitor (Z-VAD-FMK): Selleckchem, catalog: S7023; • Smac Mimetic-164 (SM-164): APEXBIO, catalog: A8815; • Human IL-1 beta/IL-1F2 Quantikine ELISA Kit: R&D systems, catalog: SLB50; • Envision Multimode Microplate Reader: PerkinElmer; • 96-well clear flat bottom TC-treated culture microplate: Falcon, catalog: 353072; • 96-well Microplate (U bottom): Corning, catalog: 3799. 2. Assay Protocol Human whole blood was anti-coagulated with heparin and used in human whole blood assay immediately. Fresh heparinized human whole blood was diluted with an equal volume of RPMI 1640 medium, aliquoted the diluted blood into 96-well plate, 90 μL each well.
Compound preparation: dilute the compound stock using DMSO and perform 3-fold serial dilution to 8-points. Then transfer the diluted compounds to RPMI 1640 medium and mix.
Compound treatment and stimulation: transfer 5 μL of the diluted compound to appropriate wells of the plate. The final concentration of the compound was 1.0, 0.333, 0.111, 0.037, 0.012, 0.004, 0.0014 and 0.0005 μM, and each well contained 0.3% DMSO. For positive and negative control wells, add 5 μL of RPMI 1640 medium with 3% DMSO. And incubate the plate at 5% CO2, 37° C. for 1 hour.
Then 5 μL of the mixture of stimuli (TNF-α, Z-VAD-FMK and SM-164) was added with the final concentration of […] except negative control wells. The negative control wells were added same volume of RPMI 1640 medium.
After incubation 6 hours in a 37° C./5% CO2 incubator, each well was added with 100 μL of PBS, and centrifuged at 4000 rmp for 10 minutes. The 110 μL of supernatant per well was collected, and stored at −80° C. for ELISA.
Prepared 100 μL of IL-1β standards (in duplicate) in designated wells. ELISA was operated according to manufacturer's instruction. In the end, measured the ELISA plate absorbance at 450 nm/570 nm using Envision.
Inhibition rates of compounds on TNF-α, Z-VAD-FMK and SM-164 induced IL-1β Production in human whole blood were calculated as follows: • IL-1β level was calculated with IL-1β standard curve (standard curve fitting equation is four parameters logistic model)
[formula] • IL-1β levelstimulated: the concentration of IL-1β in the positive control wells which added TNF-α, Z-VAD-FMK, SM-164 and no compound; • IL-1β levelnon-stimulated: the concentration of IL-1β in the negative control wells without the treatment of TNF-α, Z-VAD-FMK, SM-164 and compound; • IL-1β levelcompound: the concentration of IL-1β in the wells with the treatment of TNF-α, Z-VAD-FMK, SM-164 and compound. • The IC50 value of compound is determined with XLFit 5 software (ID Business Solutions Limited).
With CC(C)n1cncc(-c2ccc(C3(NC(=O)c4ncc5cnn(C(C)C6CC6)c5n4)CC3)cc2)c1=O (racemic) [Compound 59, 1-(1-cyclopropylethyl)-N-(1-(4-(1-i-propyl-6-oxo-1,6-dihydropyrimidin-5-yl)phenyl)cyclopropyl)-1H-pyrazolo[3,4-d]pyrimidine-6-carboxamide] the IC50 was 0.004 µM.
Compound CC(C)n1ncc2cnc(C(=O)NC3(c4ccc(-c5cncn([C@H](C)C(F)(F)F)c5=O)cc4F)CC3)nc21 (stereo in doubt) [Compound 46] has an IC50 of 0.006 µM.
CC(C)n1ncc2cnc(C(=O)NC3(c4ccc(-c5cncn([C@@H](C)C(F)(F)F)c5=O)cc4F)CC3)nc21 (stereo in doubt) [Compound 47] was tested, and the IC50 was 0.009 µM.
Work on CC(C)n1cncc(-c2ccc(C3(NC(=O)c4ncc5cnn(C(C)C)c5n4)CC3)cc2)c1=O [Compound 29, 1-isopropyl-N-(1-(4-(1-isopropyl-6-oxo-1,6-dihydropyrimidin-5-yl)phenyl)cyclopropyl)-1H-pyrazolo[3,4-d]pyrimidine-6-carboxamide] yielded an IC50 of 0.004 µM.
In the case of CC(C)n1ncc2cnc(C(=O)NC3(c4ccc(-c5cncn(CC6CC6)c5=O)cc4)CC3)nc21 [Compound 36], the IC50 is reported as 0.004 µM.
CC(C)n1ncc2cnc(C(=O)NC3(c4ccc(-c5cncn(C6COC6)c5=O)cc4)CC3)nc21 [Compound 41] was tested, and the IC50 was 0.018 µM.
CC(C)n1cncc(-c2ccc(C3(NC(=O)c4ncc5cnn(C6COC6)c5n4)CC3)cc2)c1=O [Compound 60] showed an IC50 of 0.01 µM.
CC(C)n1cncc(-c2ccc(C3(NC(=O)c4ncc5cnn(CC6CC6)c5n4)CC3)cc2)c1=O [Compound 61] was tested, and the IC50 was 0.011 µM.
For O=C(NC1(c2ccc(-c3cncn(CC4CC4)c3=O)cc2)CC1)c1ncc2cnn(CC3CC3)c2n1 [Compound 64], the IC50 was 0.012 µM.
Compound C[C@H](n1cncc(-c2ccc(C3(NC(=O)c4ncc5cnn(CC6CC6)c5n4)CC3)cc2)c1=O)C(F)(F)F [Compound 68] has an IC50 of 0.043 µM.
C[C@@H](n1cncc(-c2ccc(C3(NC(=O)c4ncc5cnn(CC6CC6)c5n4)CC3)cc2)c1=O)C(F)(F)F [Compound 70] was tested, and the IC50 was 0.008 µM.
Compound C[C@H](n1cncc(-c2ccc(C3(NC(=O)c4ncc5cnn(CC6CC6)c5n4)CC3)c(F)c2)c1=O)C(F)(F)F [Compound 71] has an IC50 of 0.038 µM.
In the case of CC(C)n1cncc(-c2ccc(C3(NC(=O)c4ncc5cnn(CC6CC6)c5n4)CC3)c(F)c2)c1=O [Compound 72], the IC50 is reported as 0.039 µM.
CC(C)n1cncc(-c2ccc(C3(NC(=O)c4ncc5cnn(CC6CC6)c5n4)CC3)cc2F)c1=O [Compound 73] was tested, and the IC50 was 0.021 µM.
Work on CC(C)n1ncc2cnc(C(=O)NC3(c4ccc(-c5cncn(CC6CC6)c5=O)cc4F)CC3)nc21 [Compound 74] yielded an IC50 of 0.013 µM.
Work on CC(C)n1ncc2cnc(C(=O)NC3(c4ccc(-c5cncn(CC6CC6)c5=O)c(F)c4)CC3)nc21 [Compound 75] yielded an IC50 of 0.011 µM.
C[C@@H](n1cncc(-c2ccc(C3(NC(=O)c4ncc5cnn(CC6CC6)c5n4)CC3)c(F)c2)c1=O)C(F)(F)F [Compound 76] gave an IC50 of 0.009 µM.
CC(C)n1ncc2cnc(C(=O)NC3(c4ccc(-c5cncn([C@H](C)C6CC6)c5=O)cc4)CC3)nc21 [Compound 84, (R)—N-(1-(4-(1-(1-cyclopropylethyl)-6-oxo-1,6-dihydropyrimidin-5-yl)phenyl)cyclopropyl)-1-i-propyl-1H-pyrazolo[3,4-d]pyrimidine-6-carboxamide] was tested, and the IC50 was 0.005 µM.
CC(C)n1ncc2cnc(C(=O)NC3(c4ccc(-c5cncn([C@@H](C)C6CC6)c5=O)cc4)CC3)nc21 [Compound 85, (S)—N-(1-(4-(1-(1-cyclopropylethyl)-6-oxo-1,6-dihydropyrimidin-5-yl)phenyl)cyclopropyl)-1-i-propyl-1H-pyrazolo[3,4-d]pyrimidine-6-carboxamide] was tested, and the IC50 was 0.005 µM.
CC(C)n1ncc2cnc(C(=O)NC3(c4ccc(-c5cncn(CC6(C)CC6)c5=O)cc4)CC3)nc21 [Compound 86] showed an IC50 of 0.013 µM.
Compound CC(C)n1cncc(-c2ccc(C3(NC(=O)c4ncc5cnn([C@H](C)C6CC6)c5n4)CC3)cc2)c1=O [Compound 89, (R)-1-(1-cyclopropylethyl)-N-(1-(4-(1-i-propyl-6-oxo-1,6-dihydropyrimidin-5-yl)phenyl)cyclopropyl)-1H-pyrazolo[3,4-d]pyrimidine-6-carboxamide] has an IC50 of 0.018 µM.
In the case of CC(C)n1cncc(-c2ccc(C3(NC(=O)c4ncc5cnn([C@@H](C)C6CC6)c5n4)CC3)cc2)c1=O [Compound 90, (S)-1-(1-cyclopropylethyl)-N-(1-(4-(1-i-propyl-6-oxo-1,6-dihydropyrimidin-5-yl)phenyl)cyclopropyl)-1H-pyrazolo[3,4-d]pyrimidine-6-carboxamide], the IC50 is reported as 0.007 µM.
